Patent publication US8895561B2, “Compounds and methods for treating candidiasis and aspergillus infections” (Cellceutix Corporation, priority 2012, dated 2014)
pEC50: −log10 of the molar value. ≈ marks a conversion by molar mass, not a printed value. Like-named read-outs stand apart in the source and are kept apart here.

Legend:
[1] = system: C. dubliniensis (NCPF3949); experiment: Yeast MIC; format: cell-based; settings: for MIC: Candida dubliniensis, NCPF3949
Protocol: (§1) Candida MIC assays were determined in accordance with CLSI guidelines M27-A3 using a clinically isolated C. albicans strain, GDH2346.50% human serum was added to determine activity in the presence of serum.
(§2) CLSI conditions Bacteria strains: clinical isolates; yeast strains: C. dubliniensis (NCPF3949), C. glabrata (ATCC 90030), C. krusei (ATCC 6258), C. parapsilosis (ATCC 22019), and C. tropicalis (ATCC 750). Cytotoxicity (EC50) was determined against mouse 3T3 fibroblasts, human transformed liver HepG2 cells, and human oral keratinocyte cell line, OKF6/TERT using an MTS viability assay.

[2] = system: C. parapsilosis (ATCC 22019); experiment: Yeast MIC; format: cell-based; settings: Lodderomyces parapsilosis, ATCC22019
Protocol: as §1, §2

C. glabrata (ATCC 90030) = experiment: Yeast MIC; format: cell-based; settings: for MIC: Nakaseomyces glabratus, ATCC90030
Protocol: as §1, §2

C. krusei (ATCC 6258) = experiment: Yeast MIC; format: cell-based; settings: Pichia kudriavzevii, ATCC6258
Protocol: as §1, §2

C. tropicalis (ATCC 750) = experiment: Yeast MIC; format: cell-based; settings: Candida tropicalis, ATCC750
Protocol: as §1, §2

C. albicans GDH2346 [3] = experiment: Cellular efflux, ATP release by luciferase assay; format: cell-based
Protocol: (A) C. albicans GDH2346 was treated with either Compound 100 or histatin 5 for 30 minutes, followed by the separation of the extracellular medium and the cells. Intracellular and extracellular ATP levels were quantified by luciferase assay and measurement in a luminometer, relative to a standard control. Treatment 1=no treatment; Treatment 2=16 μg/mL Compound 100; Treatment 3=32 μg/mL Compound 100; and Treatment 4=Histatin 5 (1 mg/mL). (B) Time dependent release of ATP of cells treated with Compound 100 at 32 μg/mL. (C) Dose response of cells treated for 30 minutes, followed by quantification of extracellular ATP.

C. albicans GDH2346 [4] = experiment: Candida MIC, CLSI M27-A3; format: cell-based; settings: Candida albicans, GDH2346
Protocol: as §1

P. aeruginosa 10145 = experiment: Bacterial MIC, broth microdilution, CLSI; format: cell-based; settings: Pseudomonas aeruginosa; P. aeruginosa 10145
Method in brief: (§3)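 MICs by broth microdilution under standard CLSI conditions against E. coli 25922, S. aureus 27660, E. faecalis 29212, P. aeruginosa 10145 and K. pneumoniae 13883.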

S. aureus 27660 = experiment: Bacterial MIC, broth microdilution, CLSI; format: cell-based; settings: Staphylococcus aureus; S. aureus 27660
Method in brief: as §3

K. pneumoniae 13883 = experiment: Bacterial MIC, broth microdilution, CLSI; format: cell-based; settings: Klebsiella pneumoniae
Method in brief: as §3

E. faecalis 29212 = experiment: Bacterial MIC, broth microdilution, CLSI; format: cell-based; settings: Enterococcus faecalis; E. faecalis 29212
Method in brief: as §3

C. albicans GDH2346 [5] = experiment: Time kill; format: cell-based; settings: FIGS. 6A and 6B
Protocol: Time kills were performed in the same manner as IC50s. At each time point yeast were removed, diluted as necessary and plated on YPD agar to determine viable CFUs.

[6] = system: C. albicans mature biofilms; experiment: Metabolic activity of mature biofilms grown at an air-liquid interface; format: cell-based
[7] = Cytotoxicity, MTS viability assay; format: cell-based, human; settings: Table 6
Method in brief: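 Cytotoxicity in mouse 3T3 fibroblasts and human HepG2 liver cells measured by MTS viability assay. Values reported as EC50.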

[8] = Table 5, read-out: MIC C. dubliniensis
[9] = Table 5, read-out: MIC C. glabrata
[10] = Table 5, read-out: MIC C. albicans
[11] = 50% human serum, read-out: MIC C. dubliniensis + 50% HS
[12] = without serum, read-out: MIC C. dubliniensis
[13] = 50% human serum, read-out: MIC C. glabrata + 50% HS
[14] = without serum, read-out: MIC C. glabrata
[15] = 50% human serum, read-out: MIC C. albicans GDH2346 + 50% HS
[16] = without serum, read-out: MIC C. albicans GDH2346

SMILES	MIC [1, 8] [µg/mL]	MIC [2] [µg/mL]	MIC (C. glabrata (ATCC 90030); [9]) [µg/mL]	MIC (C. krusei (ATCC 6258)) [µg/mL]	MIC (C. tropicalis (ATCC 750)) [µg/mL]	MIC (C. albicans GDH2346 [4]; [10]) [µg/mL]	EC50 (P. aeruginosa 10145) [µg/mL]	EC50 (S. aureus 27660) [µg/mL]	EC50 (K. pneumoniae 13883) [µg/mL]	EC50 (E. faecalis 29212) [µg/mL]	killing kinetics (C. albicans GDH2346 [5])	MIC [1, 11] [µg/mL]	MIC [1, 12] [µg/mL]	MIC C. dubliniensis ([1]; Table 5) [µg/mL]	MIC (C. glabrata (ATCC 90030); [13]) [µg/mL]	MIC (C. glabrata (ATCC 90030); [14]) [µg/mL]	MIC C. glabrata (C. glabrata (ATCC 90030); Table 5) [µg/mL]	MIC (C. albicans GDH2346 [4]; [15]) [µg/mL]	MIC (C. albicans GDH2346 [4]; [16]) [µg/mL]	other results
NCCSc1cc(SCCN)c(C(F)(F)F)cc1NC(=O)c1cc(C(=O)Nc2cc(C(F)(F)F)c(SCCN)cc2SCCN)ncn1 [Compound 100]	8 (≈ 10.6 µM)	8 (≈ 10.6 µM)	16 (≈ 21.2 µM)	8 (≈ 10.6 µM)	4 (≈ 5.3 µM)	4 to 8 (≈ 5.3 to 10.6 µM)	3.13 (≈ 4.15 µM)	0.78 (≈ 1.03 µM)	1.56 (≈ 2.07 µM)	0.78 (≈ 1.03 µM)	cidal activity with rapid killing kinetics									time to significant extracellular ATP accumulation (C. albicans GDH2346 [3]; 32 μg/mL): ≤ 20 min; ATP efflux (intracellular vs extracellular ATP) (C. albicans GDH2346 [3]; 32 μg/mL, 30 minutes): almost all of the ATP from the cell was extracellular; concentration with detectable extracellular ATP levels (C. albicans GDH2346 [3]; 30 minutes of exposure): 16 µg/mL; metabolic activity in mature biofilms [6]: significant reduction of metabolic activity
NCCCOc1cc(OCCCN)cc(-c2ccc3c(c2)c2cc(-c4cc(OCCCN)cc(OCCCN)c4)ccc2n3CCCN)c1 [Compound 135]		2 (≈ 2.99 µM)		16 (≈ 23.9 µM)	2 to 4 (≈ 2.99 to 5.98 µM)	4 (≈ 5.98 µM)	> 50	12.5 (≈ 18.7 µM)	12.5 (≈ 18.7 µM)	12.5 (≈ 18.7 µM)	cidal activity with rapid killing kinetics	1	4 (≈ 5.98 µM)	4 (≈ 5.98 µM)	2	2 (≈ 2.99 µM)	2 (≈ 2.99 µM)	2	4 (≈ 5.98 µM)	
N=C(N)N1CCN(c2ccc(-c3cc(-c4ccc(N5CCN(C(=N)N)CC5)cc4)ncn3)cc2)CC1 [Compound 136]		4 to 8 (≈ 8.25 to 16.5 µM)		32 (≈ 66 µM)	4 to 8 (≈ 8.25 to 16.5 µM)	4 (≈ 8.25 µM)	50 (≈ 103 µM)	0.39 (≈ 0.805 µM)	50 (≈ 103 µM)	0.098 (≈ 0.202 µM)		2	8 (≈ 16.5 µM)	8 (≈ 16.5 µM)	1	4 (≈ 8.25 µM)	4 (≈ 8.25 µM)	2	4 (≈ 8.25 µM)	pEC50 ([7]; human, HepG2 cells (transformed liver), read-out: Cytotoxicity EC50 Human HepG2): 3.34; pEC50 ([7]; mouse, 3T3 fibroblasts, read-out: Cytotoxicity EC50 Mouse 3T3): 3.51
NCCCOc1cc(-c2cn(-c3cc(OCCCN)cc(OCCCN)c3)nn2)cc(-c2cn(-c3cc(OCCCN)cc(OCCCN)c3)nn2)c1 [Compound 137]	8 to 16 (≈ 11 to 21.9 µM)	4 to 8 (≈ 5.48 to 11 µM)	8 (≈ 11 µM)	8 (≈ 11 µM)	4 (≈ 5.48 µM)	8 (≈ 11 µM)	50 (≈ 68.5 µM)	25 (≈ 34.3 µM)	> 50	25 (≈ 34.3 µM)										
